Patent EP0535155B1, “LIBRARIES OF MODIFIED PEPTIDES WITH PROTEASE RESISTANCE” (CHIRON CORPORATION, priority 1990, dated 2002)
Where a SMILES comes first, the peptide text is derived from it. The star is where a group is joined. Fmoc = O=C(OCC1c2ccccc2-c2ccccc21)*

Experiments:
[1] = test system: chymotrypsin; experiment: in vitro; conditions: isolated enzyme chymotrypsin, pH 8
Description: (§1) Each substrate was dissolved to 0.5 mg/mL in 10% DMSO, 100 mM Tris, 100 mM CaCl2, pH 8.0. Either trypsin or chymotrypsin was dissolved to 1 mg/mL in 0.001M HCI. At t=0, 10λ of enzyme or 0.001M HCI was added to 200λ of either the peptoid or peptide solution and incubated at 37°C. At the appropriate times, 50λ was removed and quenched with 50λ of 20% HOAc and assayed by HPLC on a C4 column with detection at 280 nm. The data below is given in percent area remaining on parent peak.

[2] = test system: trypsin
Description: as §1

[3] = physchem; conditions: buffer or solvent, pH 8
Description: as §1

[4] = test system: trypsin; experiment: Proteolysis of peptoids and peptides by trypsin (RP-HPLC); conditions: trypsin (isolated protease) in Tris buffer, pH 8
Description: as §1

[5] = test system: chymotrypsin; experiment: Proteolysis of peptoids and peptides by chymotrypsin (RP-HPLC); conditions: chymotrypsin (isolated protease) in Tris buffer, pH 8
Description: as §1

[6] = test system: chymotrypsin
Description: as §1

SMILES: CC(C)C[C@H](NC(=O)OCC1c2ccccc2-c2ccccc21)C(=O)N[C@@H](CC(=O)O)C(=O)N[C@@H](Cc1ccccc1)C(=O)N[C@@H](CO)C(=O)N[C@@H](CCCCN)C(=O)NCC(=O)O [PEPTIDE, FMOC-LDFSKG-OH] (Fmoc-LDFSKG-OH)
- metabolised at 10 min, 0.476 mg/mL [1]: ~60%
- remaining at 3 h, 0.476 mg/mL [1]: 0%
- time in which cleavage was complete [2]: ≤ 5 min
- remaining at 5 min, 0.476 mg/mL [3]: 100%
- remaining at 10 min, 0.476 mg/mL [3]: 100%
- remaining at 3 h, 0.476 mg/mL [3]: < 100%
- remaining at 5 min, 0.476 mg/mL [4]: 0%
- remaining at 10 min, 0.476 mg/mL [4]: 0%
- remaining at 3 h, 0.476 mg/mL [4]: 0%
- remaining at 5 min, 0.476 mg/mL [5]: 75%
- remaining at 10 min, 0.476 mg/mL [5]: 41%
- cleavage at the second site [6]: not cbmpletely cleaved
